“Also recorded” adds a separate entry of the source.
Experiments:
[1] = Stability in 5% ethanol-saline formulation; assay type: physicochemical
Method: (§1) The radiochemical synthesis of [^11C] MPC-6827 was optimized and automated on aGE-FX2MeI/FX2M radiochemistry module by alkylating the desmethyl-MPC6827 precursor (6) with [^11C] MeI in DMF using NaOH. [^11C] MPC-6827 was produced with a radiochemical yield (RCY) of 40%, in >99% radiochemical purity and a specific activity of 2+0.5 Ci/μmol (decay corrected to end of synthesis (EOS)). The radioligand was stable in 5% ethanol-saline formulation for 4 h and the log Poct/wat was estimated as 3.8 by shake flask method.

[2] = test system: MDA-MB-231 cells; assay: Cell uptake and blocking; assay type: cell-based
[3] = log Poct/wat by shake flask method; assay type: physicochemical; details: octanol/water
Method: as §1

[4] = test system: rat brain; assay: MicroPET in rat; assay type: in vivo
[5] = test system: brain MT; assay: Biodistribution in white male mice; assay type: in vivo
Method: (§2) Biodistribution of [^11C] […] The time-activity curves were expressed in g/mL normalized to the injected dose corrected for weight, to obtain standardized uptake values (SUVs). The brain SUV of [^11C] […] The heart, blood and muscles also show binding to [^11C] MPC-6827 and are consistent with known distribution of MTs in these organs. […] The lungs show higher uptake up to 30 minutes, followed by washout. 70% specific binding in brain was established at 30 minutes prior to the injection of radiotracer with 5 mg/kg MPC-6827 (FIG. 2) in mice.

[6] = test system: brain MT; assay: MicroPET in athymic nude male mice; assay type: in vivo
Method: as §2
Radioligand binding in thyroid gland, is also displaced during the blocking experiments.^21-23

[7] = test system: tau-overexpressing rTg4510 mice; assay: MicroPET in AD animal model rTg4510; assay type: in vivo; details: 9-month old
From the text: MicroPET studies with 9-month old, tau-overexpressing rTg4510 mice (Alzheimer disease-tau pathology) show ˜35% lower binding of [^11C]MPC-6827 brain activity in comparison to the control mice (FIGS. 12 and 13).

[8] = test system: glioblastoma (GBM) U251 cells; assay: In vitro cell uptake; assay type: cell-based
[9] = test system: prostate cancer (PC3) cells; assay: In vitro cell uptake; assay type: cell-based
[10] = test system: glioblastoma PDX cells; assay: In vitro cell uptake; assay type: cell-based
[11] = test system: amyloid overexpressing 5×FAD-AD mice; assay: MicroPET in AD animal model 5×FAD; assay type: in vivo; details: 15 month-old
From the text: In vivo imaging of [^11C]MPC-6827 in amyloid overexpressing 5×FAD-AD mice (15 month-old) show 40% lower binding of radiotracer in the whole brain model in comparison to the wild type controls (FIGS. 10 and 11). The tracer binding in frontal and mid brain regions show significant lower binding than whole brain in comparison to wild type mice.

[12] = target: NT; assay: Affinity to brain targets (panel); assay type: binding; details: NT: neurotrophin
[13] = target: GABA; assay: Affinity to brain targets (panel); assay type: binding
[14] = target: 5-HT1A (Homo sapiens, UniProt P08908); assay: Affinity to brain targets (panel); assay type: binding
5-HT1A, sequence (P08908 whole entry, species assumed): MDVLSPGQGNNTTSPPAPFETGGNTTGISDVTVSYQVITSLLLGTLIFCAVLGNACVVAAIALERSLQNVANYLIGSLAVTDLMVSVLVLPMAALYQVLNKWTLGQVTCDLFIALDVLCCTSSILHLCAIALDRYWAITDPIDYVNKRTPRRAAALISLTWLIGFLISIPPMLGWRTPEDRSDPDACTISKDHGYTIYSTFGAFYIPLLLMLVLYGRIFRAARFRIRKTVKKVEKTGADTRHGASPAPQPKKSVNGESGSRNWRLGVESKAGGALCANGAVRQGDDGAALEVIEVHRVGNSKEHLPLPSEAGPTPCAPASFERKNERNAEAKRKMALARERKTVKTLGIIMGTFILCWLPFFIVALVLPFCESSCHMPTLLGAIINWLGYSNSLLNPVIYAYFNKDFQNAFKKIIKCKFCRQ

[15] = target: α2C (Homo sapiens, UniProt P18825); assay: Affinity to brain targets (panel); assay type: binding
[16] = target: VMAT; assay: Affinity to brain targets (panel); assay type: binding; details: VMAT (VMAT 1,2): vesicular monoamine transporter
[17] = target: PKC; assay: Affinity to brain targets (panel); assay type: binding; details: PKC: Protein kinase C
[18] = target: I; assay: Affinity to brain targets (panel); assay type: binding
[19] = target: 5-HT3 (Homo sapiens, UniProt P46098); assay: Affinity to brain targets (panel); assay type: binding
[20] = target: 5-HT1E (Homo sapiens, UniProt P28566); assay: Affinity to brain targets (panel); assay type: binding
5-HT1E, sequence (P28566 whole entry, species assumed): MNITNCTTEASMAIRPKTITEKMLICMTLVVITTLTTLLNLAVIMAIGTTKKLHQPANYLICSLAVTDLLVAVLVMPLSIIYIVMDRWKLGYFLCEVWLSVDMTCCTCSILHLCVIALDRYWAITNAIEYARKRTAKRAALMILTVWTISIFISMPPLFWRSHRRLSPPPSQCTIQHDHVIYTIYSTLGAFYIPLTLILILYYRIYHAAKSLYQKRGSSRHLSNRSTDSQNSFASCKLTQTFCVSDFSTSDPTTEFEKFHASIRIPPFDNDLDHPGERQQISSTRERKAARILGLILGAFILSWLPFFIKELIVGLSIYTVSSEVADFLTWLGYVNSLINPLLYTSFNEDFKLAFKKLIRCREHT

[21] = target: CB2 (Homo sapiens, UniProt P34972); assay: Affinity to brain targets (panel); assay type: binding; details: CB2: cannabinoid
CB2, sequence (P34972 whole entry, species assumed): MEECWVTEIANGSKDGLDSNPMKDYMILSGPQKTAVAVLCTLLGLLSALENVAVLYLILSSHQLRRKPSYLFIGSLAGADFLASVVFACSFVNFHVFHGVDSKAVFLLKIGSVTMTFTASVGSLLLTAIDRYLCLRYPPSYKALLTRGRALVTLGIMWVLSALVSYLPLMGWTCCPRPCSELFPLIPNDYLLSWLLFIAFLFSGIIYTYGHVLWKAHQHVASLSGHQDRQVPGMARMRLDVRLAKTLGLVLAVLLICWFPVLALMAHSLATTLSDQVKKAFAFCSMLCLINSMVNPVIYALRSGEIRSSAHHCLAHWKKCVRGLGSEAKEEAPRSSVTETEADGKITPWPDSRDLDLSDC

[22] = target: D5 (Homo sapiens, UniProt P21918); assay: Affinity to brain targets (panel); assay type: binding; details: D5: dopamine
[23] = target: NMDA; assay: Affinity to brain targets (panel); assay type: binding
[24] = target: M; assay: Affinity to brain targets (panel); assay type: binding; details: M: muscarinic
[25] = target: 5-HT2B (Homo sapiens, UniProt P41595); assay: Affinity to brain targets (panel); assay type: binding
[26] = target: Sigma1 (Homo sapiens, UniProt Q99720); assay: Affinity to brain targets (panel); assay type: binding
[27] = target: H2 (Homo sapiens, UniProt P25021); assay: Affinity to brain targets (panel); assay type: binding; details: H2: histamine
H2, sequence (P25021 whole entry): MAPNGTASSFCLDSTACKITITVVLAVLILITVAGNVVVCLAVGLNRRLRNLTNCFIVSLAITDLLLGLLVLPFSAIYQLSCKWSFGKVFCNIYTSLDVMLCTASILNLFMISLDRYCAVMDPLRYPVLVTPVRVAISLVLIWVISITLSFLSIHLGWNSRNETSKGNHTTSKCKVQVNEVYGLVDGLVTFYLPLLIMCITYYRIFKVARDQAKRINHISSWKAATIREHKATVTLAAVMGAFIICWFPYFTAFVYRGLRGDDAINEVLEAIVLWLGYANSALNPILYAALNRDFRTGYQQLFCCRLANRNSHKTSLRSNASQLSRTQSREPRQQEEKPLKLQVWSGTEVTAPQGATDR

[28] = target: 5-HT1D (Homo sapiens, UniProt P28221); assay: Affinity to brain targets (panel); assay type: binding
5-HT1D, sequence (P28221 whole entry, species assumed): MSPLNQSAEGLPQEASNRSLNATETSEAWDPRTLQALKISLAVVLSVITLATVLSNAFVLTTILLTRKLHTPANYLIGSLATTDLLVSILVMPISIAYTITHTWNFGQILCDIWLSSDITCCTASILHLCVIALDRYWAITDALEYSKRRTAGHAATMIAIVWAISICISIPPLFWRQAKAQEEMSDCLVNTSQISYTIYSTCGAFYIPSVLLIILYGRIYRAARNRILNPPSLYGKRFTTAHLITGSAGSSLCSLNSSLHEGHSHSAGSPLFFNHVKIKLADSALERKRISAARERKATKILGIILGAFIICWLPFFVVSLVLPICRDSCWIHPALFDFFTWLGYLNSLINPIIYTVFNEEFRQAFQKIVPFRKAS

[29] = test system: panel of kinases; details: cited from earlier work
[30] = target: MOR (Homo sapiens, UniProt P35372); assay: Affinity to brain targets (panel); assay type: binding; details: MOR: mu opioid receptor
MOR, sequence (P35372 whole entry): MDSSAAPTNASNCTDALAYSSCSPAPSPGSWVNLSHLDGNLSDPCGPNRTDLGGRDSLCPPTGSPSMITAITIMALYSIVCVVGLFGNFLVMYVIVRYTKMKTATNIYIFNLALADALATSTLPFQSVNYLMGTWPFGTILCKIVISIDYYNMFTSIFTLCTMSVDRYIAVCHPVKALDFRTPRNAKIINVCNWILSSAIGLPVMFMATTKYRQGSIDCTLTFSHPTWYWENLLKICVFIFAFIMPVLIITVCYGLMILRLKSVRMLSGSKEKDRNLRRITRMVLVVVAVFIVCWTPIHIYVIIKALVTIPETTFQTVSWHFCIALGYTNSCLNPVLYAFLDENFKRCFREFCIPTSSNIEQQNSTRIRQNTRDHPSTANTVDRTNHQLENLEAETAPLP

[31] = target: V1-2; assay: Affinity to brain targets (panel); assay type: binding; details: V1-2: vasopressin
[32] = target: BZP; assay: Affinity to brain targets (panel); assay type: binding; details: BZP: benzodiazepine
[33] = target: α2B (Homo sapiens, UniProt P18089); assay: Affinity to brain targets (panel); assay type: binding
α2B, sequence (P18089 whole entry): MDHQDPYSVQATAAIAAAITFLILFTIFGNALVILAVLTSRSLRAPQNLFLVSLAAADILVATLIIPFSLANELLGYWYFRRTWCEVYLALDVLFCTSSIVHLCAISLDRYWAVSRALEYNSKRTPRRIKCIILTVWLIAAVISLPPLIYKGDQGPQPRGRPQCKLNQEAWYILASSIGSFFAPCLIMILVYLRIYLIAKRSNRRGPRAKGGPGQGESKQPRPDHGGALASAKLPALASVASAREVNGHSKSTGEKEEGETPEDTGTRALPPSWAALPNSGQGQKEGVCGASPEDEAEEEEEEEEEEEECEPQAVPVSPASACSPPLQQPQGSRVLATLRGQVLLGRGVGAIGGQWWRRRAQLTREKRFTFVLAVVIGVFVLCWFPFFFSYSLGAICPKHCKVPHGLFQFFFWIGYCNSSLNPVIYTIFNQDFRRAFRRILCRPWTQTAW

[34] = target: NK; assay: Affinity to brain targets (panel); assay type: binding; details: NK: neurokinin
[35] = target: KA; assay: Affinity to brain targets (panel); assay type: binding; details: KA (KAR): Kainate
[36] = target: variety of brain targets; assay: Affinity for a variety of brain targets; assay type: binding; details: variety of brain targets (Table 1), except H4R
[37] = target: mGluR; assay: Affinity to brain targets (panel); assay type: binding; details: mGluR (mGluRs): metabotropic glutamate receptors
[38] = target: 5-HT1B (Homo sapiens, UniProt P28222); assay: Affinity to brain targets (panel); assay type: binding
[39] = target: α2A (Homo sapiens, UniProt P08913); assay: Affinity to brain targets (panel); assay type: binding
[40] = target: Ca++ channel; assay: Affinity to brain targets (panel); assay type: binding
[41] = target: β1 (Homo sapiens, UniProt P08588); assay: Affinity to brain targets (panel); assay type: binding
β1, sequence (P08588 whole entry): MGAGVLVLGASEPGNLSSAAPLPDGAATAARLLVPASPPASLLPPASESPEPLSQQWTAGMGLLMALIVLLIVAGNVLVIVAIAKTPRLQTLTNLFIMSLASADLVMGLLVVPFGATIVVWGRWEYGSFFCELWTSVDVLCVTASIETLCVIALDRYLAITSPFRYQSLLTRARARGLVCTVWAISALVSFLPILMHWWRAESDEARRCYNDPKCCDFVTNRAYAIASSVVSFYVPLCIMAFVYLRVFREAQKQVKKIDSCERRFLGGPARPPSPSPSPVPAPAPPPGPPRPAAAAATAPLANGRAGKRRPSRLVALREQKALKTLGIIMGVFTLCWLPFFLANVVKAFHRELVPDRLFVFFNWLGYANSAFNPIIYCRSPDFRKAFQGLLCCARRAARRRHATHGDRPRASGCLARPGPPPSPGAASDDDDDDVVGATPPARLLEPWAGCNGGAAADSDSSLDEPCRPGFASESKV

[42] = test system: microtubules (MTs); details: reference 9; cited from earlier work
[43] = target: 5-HT2A (Homo sapiens, UniProt P28223); assay: Affinity to brain targets (panel); assay type: binding
5-HT2A, sequence (P28223 whole entry): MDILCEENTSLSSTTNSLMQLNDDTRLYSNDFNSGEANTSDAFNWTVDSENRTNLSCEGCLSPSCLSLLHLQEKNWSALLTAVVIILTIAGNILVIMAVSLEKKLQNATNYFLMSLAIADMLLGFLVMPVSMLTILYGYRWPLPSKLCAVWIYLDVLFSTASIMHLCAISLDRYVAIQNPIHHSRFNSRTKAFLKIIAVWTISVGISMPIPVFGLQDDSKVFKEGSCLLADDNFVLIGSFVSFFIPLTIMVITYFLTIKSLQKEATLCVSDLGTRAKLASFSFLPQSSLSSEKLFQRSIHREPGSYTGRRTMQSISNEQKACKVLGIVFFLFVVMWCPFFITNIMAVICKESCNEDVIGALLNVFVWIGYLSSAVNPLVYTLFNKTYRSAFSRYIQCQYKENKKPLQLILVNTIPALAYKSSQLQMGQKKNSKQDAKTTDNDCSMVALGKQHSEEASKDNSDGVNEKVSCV

[44] = target: Na+ Channel; assay: Affinity to brain targets (panel); assay type: binding
[45] = target: 5-HT7 (Homo sapiens, UniProt P34969); assay: Affinity to brain targets (panel); assay type: binding
[46] = target: D3 (Homo sapiens, UniProt P35462); assay: Affinity to brain targets (panel); assay type: binding; details: D3: dopamine
[47] = target: CB1 (Homo sapiens, UniProt P21554); assay: Affinity to brain targets (panel); assay type: binding; details: CB1: cannabinoid
[48] = target: D1, D2; assay: Affinity to brain targets (panel); assay type: binding; details: D1, D2: dopamine
[49] = target: Adenosine; assay: Affinity to brain targets (panel); assay type: binding; details: Adenosine (A)
[50] = target: H3, H4; assay: Affinity to brain targets (panel); assay type: binding; details: H3, H4: histamine
[51] = target: EP; assay: Affinity to brain targets (panel); assay type: binding; details: EP: prostanoid receptors
[52] = target: D4 (Homo sapiens, UniProt P21917); assay: Affinity to brain targets (panel); assay type: binding; details: D4: dopamine
[53] = target: AMPA; assay: Affinity to brain targets (panel); assay type: binding
[54] = target: β2 (Homo sapiens, UniProt P07550); assay: Affinity to brain targets (panel); assay type: binding
β2, sequence (P07550 whole entry): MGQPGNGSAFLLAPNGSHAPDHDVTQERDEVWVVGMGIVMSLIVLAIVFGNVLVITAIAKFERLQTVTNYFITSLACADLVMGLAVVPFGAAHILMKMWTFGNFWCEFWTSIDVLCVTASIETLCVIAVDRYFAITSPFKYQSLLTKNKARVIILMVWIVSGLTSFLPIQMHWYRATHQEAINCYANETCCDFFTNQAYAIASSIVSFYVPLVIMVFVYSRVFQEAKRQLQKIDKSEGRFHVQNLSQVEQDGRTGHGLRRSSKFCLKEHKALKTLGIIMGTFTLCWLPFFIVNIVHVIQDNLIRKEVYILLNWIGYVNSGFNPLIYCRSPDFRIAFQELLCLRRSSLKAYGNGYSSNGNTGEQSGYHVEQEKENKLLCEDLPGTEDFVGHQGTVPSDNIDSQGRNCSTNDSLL

[55] = target: α1A-1C; assay: Affinity to brain targets (panel); assay type: binding
[56] = target: β3 (Homo sapiens, UniProt P13945); assay: Affinity to brain targets (panel); assay type: binding
β3, sequence (P13945 whole entry): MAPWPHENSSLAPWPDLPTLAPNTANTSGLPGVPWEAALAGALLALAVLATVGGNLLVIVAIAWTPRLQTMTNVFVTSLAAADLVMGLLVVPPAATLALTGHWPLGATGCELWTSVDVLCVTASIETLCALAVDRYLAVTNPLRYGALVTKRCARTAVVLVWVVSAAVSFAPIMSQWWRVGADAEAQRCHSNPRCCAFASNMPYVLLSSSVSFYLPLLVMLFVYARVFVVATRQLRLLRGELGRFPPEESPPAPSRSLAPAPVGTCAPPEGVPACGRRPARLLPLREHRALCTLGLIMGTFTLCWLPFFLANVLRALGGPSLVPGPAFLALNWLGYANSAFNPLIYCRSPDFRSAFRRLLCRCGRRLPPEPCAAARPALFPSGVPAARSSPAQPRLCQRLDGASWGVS

[57] = target: 5-HT2C (Homo sapiens, UniProt P28335); assay: Affinity to brain targets (panel); assay type: binding
5-HT2C, sequence (P28335 33-458, species assumed): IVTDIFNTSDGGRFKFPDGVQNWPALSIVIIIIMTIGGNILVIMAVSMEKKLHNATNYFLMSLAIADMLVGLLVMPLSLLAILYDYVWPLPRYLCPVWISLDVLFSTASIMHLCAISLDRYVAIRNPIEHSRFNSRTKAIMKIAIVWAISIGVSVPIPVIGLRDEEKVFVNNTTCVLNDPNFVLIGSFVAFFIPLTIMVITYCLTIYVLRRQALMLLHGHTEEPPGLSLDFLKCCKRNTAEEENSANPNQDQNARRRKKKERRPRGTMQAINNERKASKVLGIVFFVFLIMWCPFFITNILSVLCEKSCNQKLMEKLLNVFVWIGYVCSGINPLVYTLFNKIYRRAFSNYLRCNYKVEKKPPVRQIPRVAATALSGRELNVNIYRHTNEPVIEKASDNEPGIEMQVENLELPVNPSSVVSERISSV

With COc1ccc(N(C)c2nc(C)nc3ccccc23)cc1 [[^11C]MPC-6827] the “stable in 5% ethanol-saline formulation” value [1] was 4 h, the “binding site on microtubules” value [2] was “binds to taxane and colchicine binding sites of microtubules” and the “incubation time to equilibrium binding” value [2] was 60 min. The specific binding ([2]; with 5 μM MPC-6827) was 95%, the specific binding ([2]; with 5 μM MTA HD-800) was 95% and the specific binding ([2]; with 5 μM colchicine) was 65%. The specific binding ([2]; with 5 μM docetaxel) was 88%, the specific binding ([2]; with 5 μM paclitaxel) was 78% and the logP [3] was 3.8. For the same compound, the “BBB penetration and retention in brain” value [4] was “BBB penetration and excellent retention”, the “BBB penetration and brain retention” value ([5]; biodistribution, white male mice) was “penetrated the BBB and was retained in the brain” and the “specific binding in brain” value ([5]; mice, 30 minutes, blocking with 5 mg/kg MPC-6827) was 70%. For the same compound, the “brain SUV” value ([5]; mice, compared with established PET tracers) was “higher than that of the established brain PET/periphery PET tracers”, the “brain uptake / BBB penetration” value ([6]; microPET, nude mice, baseline) was “excellent brain uptake; also recorded: penetrates the blood brain barrier (BBB) with excellent retention” and the “blocking of brain uptake” value ([6]; pre-administration of 5 mg/kg MPC-6827 and 5 mg/kg HD-800 (i.v.)) was “substantially blocked”. The “lower binding (brain activity) vs control mice” value [7] was ~35%, the “uptake and specific binding” value [8] was “excellent uptake and specific binding” and the “uptake and specific binding” value [9] was “excellent uptake and specific binding”. The “uptake and specific binding” value [10] was “excellent uptake and specific binding” and the “lower binding of radiotracer in the whole brain vs wild type controls” value [11] was 40%.

With COc1ccc(N(C)c2nc(C)nc3ccccc23)cc1 [MPC-6827, N-(4-methoxyphenyl)-N,2-dimethylquinazolin-4-amine] the Ki [12] was > 10 µM, the Ki [13] was > 10 µM and the Ki [14] was > 10 µM. For the same compound, the Ki [15] was > 10 µM, the Ki [16] was > 10 µM and the Ki [17] was > 10 µM. For the same compound, the Ki [18] was > 10 µM, the Ki [19] was > 10 µM and the Ki [20] was > 10 µM. The Ki [21] was > 10 µM, the Ki [22] was > 10 µM and the Ki [23] was > 10 µM. The Ki [24] was > 10 µM, the Ki [25] was > 10 µM and the Ki [26] was 0.426 µM. For the same compound, the Ki [27] was 0.155 µM, the Ki [28] was > 10 µM and the “binding to a panel / variety of kinases” value [29] was “did not show binding”. The Ki [30] was 6.48 µM, the Ki [31] was > 10 µM and the Ki [32] was > 10 µM. For the same compound, the Ki [33] was > 10 µM, the Ki [34] was > 10 µM and the Ki [35] was > 10 µM. The Ki [36] was > 10 µM, the Ki [37] was > 10 µM and the Ki [38] was > 10 µM. For the same compound, the Ki [39] was > 10 µM, the Ki [40] was > 10 µM and the Ki [41] was > 10 µM. The “competition at microtubule binding sites” value [42] was “compete with paclitaxel and colchicine, but not with vinblastine”, the Ki [43] was > 10 µM and the Ki [44] was > 10 µM. The Ki [45] was > 10 µM, the Ki [46] was > 10 µM and the Ki [47] was > 10 µM. For the same compound, the Ki [48] was > 10 µM, the Ki [49] was > 10 µM and the Ki [50] was > 10 µM. The Ki [51] was > 10 µM, the Ki [52] was > 10 µM and the Ki [53] was > 10 µM. The Ki [54] was > 10 µM, the Ki [55] was > 10 µM and the Ki [56] was > 10 µM. The Ki [57] was > 10 µM.

Reference: patent US12054463B2, “Radiolabeled microtubule imaging compounds and uses thereof” (The Trustees of Columbia University in the City of New York, priority 2017, dated 2024)
